According to ChEMBL document CHEMBL1201862, “PubChem BioAssay data set” (2004):
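Dose response: 5 concentrations. Exposure: 48 h. Format: 96-well plates. Endpoint: linear interpolation; highest concentration if not reached. The concentration for 50% growth inhibition is given as GI50.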 The source made the active and inactive calls. Rule as the data show it: active = GI50 up to about 1.1 µM and inactive = higher.

Columns and labels:
Assay in all cases: growth of human tumour cells (NCI), 48 h
SF-268 = tested on: SF-268
OVCAR-5 = tested on: OVCAR-5
NCI-H23 = tested on: NCI-H23
HL-60 = tested on: HL-60
HOP-92 = tested on: HOP-92
SNB-19 = tested on: SNB-19
OVCAR-8 = tested on: OVCAR-8
DMS-273 = tested on: DMS-273
DLD-1 = tested on: DLD-1
HT-29 = tested on: HT-29
EKVX = tested on: EKVX
HCT-15 = tested on: HCT-15
MCF7 = tested on: MCF7
IGROV-1 = tested on: IGROV-1
A549 = tested on: A549
U-251 = tested on: U-251
K562 = tested on: K562
SK-MEL-28 = tested on: SK-MEL-28
CCRF-CEM = tested on: CCRF-CEM
M19-MEL = tested on: M19-MEL
SW-620 = tested on: SW-620
SNB-78 = tested on: SNB-78
CAKI-1 = tested on: CAKI-1
SN12C = tested on: SN12C
HOP-18 = tested on: HOP-18
SK-OV-3 = tested on: SK-OV-3
HOP-62 = tested on: HOP-62
SR = tested on: SR
RPMI-8226 = tested on: RPMI-8226
ACHN = tested on: ACHN
DMS-114 = tested on: DMS-114
SK-MEL-5 = tested on: SK-MEL-5
SK-MEL-2 = tested on: SK-MEL-2
LOX IMVI = tested on: LOX IMVI
XF498 = tested on: XF498
TK-10 = tested on: TK-10
M14 = tested on: M14
Malme-3M = tested on: Malme-3M
COLO 205 = tested on: COLO 205
786-0 = tested on: 786-0
KM-20L2 = tested on: KM-20L2
OVCAR-4 = tested on: OVCAR-4
LXFL 529 = tested on: LXFL 529
HCC 2998 = tested on: HCC 2998
UACC-62 = tested on: UACC-62
MOLT-4 = tested on: MOLT-4
SNB-75 = tested on: SNB-75
UO-31 = tested on: UO-31
SF-539 = tested on: SF-539
OVCAR-3 = tested on: OVCAR-3
KM12 = tested on: KM12
UACC-257 = tested on: UACC-257
RXF 393 = tested on: RXF 393
HCT-116 = tested on: HCT-116
NCI-H522 = tested on: NCI-H522
NCI-H460 = tested on: NCI-H460
NCI-H226 = tested on: NCI-H226
SF-295 = tested on: SF-295

C[C@]12CC[C@@H]3c4ccc(OC(=O)N(CCCl)CCCl)cc4CC[C@H]3[C@@H]1CC[C@@H]2O [ESTRAMUSTINE]
GI50 (SF-268): 0.025 µM (active)
GI50 (OVCAR-5): 0.025 µM (active)
GI50 (NCI-H23): 0.025 µM (active)
GI50 (HL-60): 0.025 µM (active)
GI50 (HOP-92): 0.025 µM (active)
GI50 (SNB-19): 0.025 µM (active)
GI50 (OVCAR-8): 0.025 µM (active)
GI50 (DMS-273): 2.5 µM (inactive)
GI50 (DLD-1): 0.025 µM (active)
GI50 (HT-29): 0.025 µM (active)
GI50 (EKVX): 0.025 µM (active)
GI50 (HCT-15): 0.025 µM
GI50 (MCF7): 0.025 µM (active)
GI50 (IGROV-1): 0.025 µM (active)
GI50 (A549): 0.025 µM (active)
GI50 (U-251): 1.78 µM (inactive)
GI50 (K562): 0.025 µM (active)
GI50 (SK-MEL-28): 0.025 µM (active)
GI50 (CCRF-CEM): 0.025 µM (active)
GI50 (M19-MEL): 0.025 µM (active)
GI50 (SW-620): 0.025 µM (active)
GI50 (SNB-78): 0.025 µM (active)
GI50 (CAKI-1): 0.025 µM (active)
GI50 (SN12C): 0.025 µM (active)
GI50 (HOP-18): 6.04 µM (inactive)
GI50 (SK-OV-3): 0.025 µM (active)
GI50 (HOP-62): 0.025 µM (active)

CC#Cc1c(O)c2c(c(O)c1C#CC)C(=O)c1ccccc1C2=O
GI50 (SR): > 100 µM (inactive)
GI50 (RPMI-8226): 54.5 µM (inactive)
GI50 (ACHN): > 100 µM (inactive)
GI50 (OVCAR-5): > 100 µM (inactive)
GI50 (DMS-114): > 100 µM (inactive)
GI50 (HL-60): > 100 µM (inactive)
GI50 (SK-MEL-5): > 100 µM (inactive)
GI50 (OVCAR-8): > 100 µM (inactive)
GI50 (DMS-273): > 100 µM (inactive)
GI50 (DLD-1): > 100 µM (inactive)
GI50 (SK-MEL-2): > 100 µM (inactive)
GI50 (LOX IMVI): 93.5 µM (inactive)
GI50 (XF498): > 100 µM (inactive)
GI50 (TK-10): > 100 µM (inactive)
GI50 (M14): > 100 µM (inactive)
GI50 (Malme-3M): > 100 µM (inactive)
GI50 (EKVX): > 100 µM (inactive)
GI50 (HCT-15): > 100 µM
GI50 (COLO 205): > 100 µM (inactive)
GI50 (IGROV-1): > 100 µM (inactive)
GI50 (A549): > 100 µM (inactive)
GI50 (U-251): > 100 µM (inactive)
GI50 (786-0): > 100 µM (inactive)
GI50 (K562): > 100 µM (inactive)
GI50 (KM-20L2): > 100 µM (inactive)
GI50 (OVCAR-4): > 100 µM (inactive)
GI50 (LXFL 529): 11 µM (inactive)
GI50 (CCRF-CEM): > 100 µM (inactive)
GI50 (M19-MEL): > 100 µM (inactive)
GI50 (SW-620): > 100 µM (inactive)
GI50 (HCC 2998): > 100 µM (inactive)
GI50 (CAKI-1): > 100 µM (inactive)
GI50 (SN12C): > 100 µM (inactive)
GI50 (UACC-62): 64.6 µM (inactive)
GI50 (MOLT-4): > 100 µM (inactive)
GI50 (SK-OV-3): > 100 µM (inactive)
GI50 (HOP-62): > 100 µM (inactive)

CCOC(=O)C(C)Sc1nnc(COc2ccc(Cl)cc2)n1-c1ccccc1 (configuration not stated)
GI50 (RPMI-8226): 19.1 µM (inactive)
GI50 (SF-268): 18.3 µM (inactive)
GI50 (SNB-75): 30.6 µM (inactive)
GI50 (ACHN): 17.5 µM (inactive)
GI50 (OVCAR-5): 26.6 µM (inactive)
GI50 (NCI-H23): 20.1 µM (inactive)
GI50 (UO-31): 14.7 µM (inactive)
GI50 (HL-60): 18.5 µM (inactive)
GI50 (SK-MEL-5): 21.4 µM (inactive)
GI50 (HOP-92): 20.8 µM (inactive)
GI50 (SF-539): 21.4 µM (inactive)
GI50 (SNB-19): 19.3 µM (inactive)
GI50 (OVCAR-8): 23.4 µM (inactive)
GI50 (DMS-273): 16.4 µM (inactive)
GI50 (OVCAR-3): 17.4 µM (inactive)
GI50 (DLD-1): 19.8 µM (inactive)
GI50 (SK-MEL-2): 13.4 µM (inactive)
GI50 (LOX IMVI): 14.3 µM (inactive)
GI50 (TK-10): 27.5 µM (inactive)
GI50 (M14): 16.9 µM (inactive)
GI50 (HT-29): 18 µM (inactive)
GI50 (Malme-3M): 25.8 µM (inactive)
GI50 (KM12): 21 µM (inactive)
GI50 (EKVX): 24.6 µM (inactive)
GI50 (HCT-15): 14.7 µM
GI50 (COLO 205): 18.4 µM (inactive)
GI50 (IGROV-1): 26.8 µM (inactive)
GI50 (A549): 43.7 µM (inactive)
GI50 (UACC-257): 23.6 µM (inactive)
GI50 (U-251): 19.5 µM (inactive)
GI50 (786-0): 29.6 µM (inactive)
GI50 (K562): 13.6 µM (inactive)
GI50 (RXF 393): 22.9 µM (inactive)
GI50 (HCT-116): 21.4 µM (inactive)
GI50 (KM-20L2): 18.5 µM (inactive)
GI50 (NCI-H522): 1.82 µM (inactive)
GI50 (OVCAR-4): 20.6 µM (inactive)
GI50 (SK-MEL-28): 21.3 µM (inactive)
GI50 (NCI-H460): 17.7 µM (inactive)
GI50 (NCI-H226): 21.5 µM (inactive)
GI50 (LXFL 529): 16.4 µM (inactive)
GI50 (CCRF-CEM): 14.5 µM (inactive)
GI50 (SF-295): 22 µM (inactive)
GI50 (M19-MEL): 19.1 µM (inactive)
GI50 (SW-620): 14.2 µM (inactive)
GI50 (SNB-78): 26.1 µM (inactive)
GI50 (HCC 2998): 22.5 µM (inactive)
GI50 (CAKI-1): 16.2 µM (inactive)
GI50 (SN12C): 17.9 µM (inactive)
GI50 (UACC-62): 17.3 µM (inactive)
GI50 (HOP-18): 49 µM (inactive)
GI50 (SK-OV-3): 36.1 µM (inactive)
GI50 (HOP-62): 21.4 µM (inactive)
